Experimental data: patent US9931315B2, “Method of selectively inhibiting Ras-mediated tumor growth in humans” (ADT PHARMACEUTICALS, INC., priority 2014, dated 2018)
Where two headings read alike, the source gives them in different places.

Experiments:
Format in all cases: cell-based, human
A549 lung cancer cells = assay: Cell growth inhibition (CellTiter-Glo ATP assay), A549 cells with mutant K-Ras; conditions: for IC50: Homo sapiens, A549, 72 h, growth inhibition, three days treatment, K-Ras mutant lung cancer cells, read-out: A549 (Ras-activated) IC50; for Selectivity HT-29/A549: ratio IC50 HT-29 (WT Ras) / IC50 A549 (Ras-activated)
Procedure: This example illustrates cell growth assays employed in the present invention. Cells used in such assays included A-549, HT-29, MDA-MB-231, Colo-205, Caco2, HCT-116, SW-480, and DLD-1 human cancer cells obtained from the American Type Culture Collection (ATCC).
(§1) Human tumor cells were cultured using standard methods in RPMI-1640 growth medium supplemented with 5% fetal bovine serum (FBS). Normal rat kidney (NRK) and Ki-Ras transformed NRK cells (K-NRK) were obtained from ATCC, and were cultured according to supplier recommendations. CellTiter-Glo ATP cell growth assay reagents were obtained from Promega and used according to the manufacturer's protocol. Inhibitors of EGFR, Raf, and MEK were obtained from Selleck Chemicals. Cells were plated at a density of 5,000 cells per well in 96-well microplates or 1,250 cells per well in 384-well plates, and allowed to attach for at least 4 h. Test compounds were dissolved in dimethyl sulfoxide (DMSO), and this working stock was further diluted in growth medium for addition to cell cultures. Serial dilutions of the test compound were prepared in growth medium containing an equal amount of DMSO not exceeding 0.2% final concentration. Each compound concentration was tested in at least 3 separate samples per cell line. At the end of a 3-day treatment period, growth inhibition was analyzed using a bioluminescent assay of ATP concentration (Promega CellTiter-Glo) according to the manufacturer's protocol. Resulting luminescence was measured using the luminescence cartridge of the Molecular Devices Spectramax Paradigm microplate reader. Relative growth inhibition for each sample was determined by comparison with the values obtained for vehicle treated control samples. Growth inhibition values were plotted with the GraphPad Prism5 software using the 4-parameter logistic fit to obtain IC50 values, which corresponds to the growth inhibitory potency of the compound.
(§2) This example illustrates effects of exemplary compounds of the present invention on cancer cells having activated or mutated Ras compared to wild-type (WT) Ras. […] A549 lung cancer cells, which harbor a mutation in the K-Ras oncogene were treated for three days with the compounds.

HT-29 colon cancer cells = assay: Cell growth inhibition (CellTiter-Glo ATP assay), HT-29 cells with wild-type Ras; conditions: Homo sapiens, HT-29
Procedure: (§3) This example illustrates cell growth assays employed in the present invention.
as §1, with “Normal” for “Human tumor cells were cultured using standard methods in RPMI-1640 growth medium supplemented with 5% fetal bovine serum (FBS). Normal”
as §2
(§4) Cells were seeded in 384-well plates and allowed to attach. Ten-fold serial dilutions of compounds were tested. Each compound concentration was tested in at least 3 separate samples per cell line.

[1] = system: HCT-116 colon tumor cells; assay: Cell growth inhibition (CellTiter-Glo), HCT-116 colon tumor cells expressing mutant Ras; conditions: ratio IC50 HT-29 (WT Ras) / IC50 HCT-116 (mutant Ras), 5000 cells/well, 96-well plates
Procedure: This example illustrates cell growth assays employed in the present invention. […] Normal rat kidney (NRK) and Ki-Ras transformed NRK cells (K-NRK) were obtained from ATCC, and were cultured according to supplier recommendations. CellTiter-Glo ATP cell growth assay reagents were obtained from Promega and used according to the manufacturer's protocol. Inhibitors of EGFR, Raf, and MEK were obtained from Selleck Chemicals. Cells were plated at a density of 5,000 cells per well in 96-well microplates or 1,250 cells per well in 384-well plates, and allowed to attach for at least 4 h. Test compounds were dissolved in dimethyl sulfoxide (DMSO), and this working stock was further diluted in growth medium for addition to cell cultures. Serial dilutions of the test compound were prepared in growth medium containing an equal amount of DMSO not exceeding 0.2% final concentration. Each compound concentration was tested in at least 3 separate samples per cell line. At the end of a 3-day treatment period, growth inhibition was analyzed using a bioluminescent assay of ATP concentration (Promega CellTiter-Glo) according to the manufacturer's protocol. Resulting luminescence was measured using the luminescence cartridge of the Molecular Devices Spectramax Paradigm microplate reader. Relative growth inhibition for each sample was determined by comparison with the values obtained for vehicle treated control samples. […] This example illustrates use of well-established human colon tumor cell lines with widely divergent Ras activation status to determine selectivity values for exemplary compounds of the present invention. […] Cells were plated at 5000 cells/well in 96-well plates, and viable cell numbers were measured using the Cell Titer Glo ATP luminescence assay (Promega). […] Cells were seeded in 384-well plates and allowed to attach. Ten-fold serial dilutions of compounds were tested. Each compound concentration was tested in at least 3 separate samples per cell line.

SW-480 cells = assay: Cell growth inhibition (CellTiter-Glo), SW-480 colorectal cells with activated Ras; conditions: for IC50: Homo sapiens, SW480, growth inhibition, 384-well plates, Table 3, read-out: SW-480 (Ras Activated IC50); for Selectivity Caco-2/SW-480: ratio IC50 Caco-2 (WT Ras) / IC50 SW-480 (Ras activated)
Procedure: as §3
as §1, with “Normal” for “Human tumor cells were cultured using standard methods in RPMI-1640 growth medium supplemented with 5% fetal bovine serum (FBS). Normal”
The growth inhibitory activity of the compounds was tested using the CellTiter-Glo assay. Cells were seeded in 384-well plates and allowed to attach, then ten-fold serial dilutions of compounds were tested. Each concentration was tested in at least 3 separate samples per cell line.
as §4

Caco-2 cells = assay: Cell growth inhibition (CellTiter-Glo), Caco-2 colorectal cells with wild-type Ras; conditions: Homo sapiens, Caco-2; growth inhibition, 384-well plates, Table 3; read-out: Caco-2 (WT Ras) IC50
[2] = growth inhibition, colon cancer cells with wild-type Ras, Table 2, read-out: HT-29 (WT Ras) IC50

SMILES | IC50 (A549 lung cancer cells) [nM] | IC50 (HT-29 colon cancer cells; [2]) [nM] | IC50 (SW-480 cells) [nM] | IC50 (Caco-2 cells) [nM] | IC50 (HT-29 colon cancer cells; known Ras pathway inhibitors, 384-well plates, Table 4, read-out: HT-29 IC50) [nM] | Selectivity HT-29/A549 (A549 lung cancer cells) | HT-29/HCT-116 selectivity values [1] | Selectivity Caco-2/SW-480 (SW-480 cells)
COc1ccc2c(c1)C(CC(=O)NCCN(C)C)=C(C)/C2=C/c1cc(OC)c(O)c(OC)c1 [Compound 003, (Z)—N-(2-(dimethylamino)ethyl)-2-(1-(4-hydroxy-3,5-dimethoxybenzylidene)-5-methoxy-2-methyl-1H-inden-3-yl)acetamide] | 3650 | 4120 |  |  |  | 1 |  | 
COc1ccc2c(c1)C(CC(=O)NCc1ccc[nH]1)=C(C)/C2=C/c1cc(OC)c(O)c(OC)c1 [Compound 022, (Z)—N-((1H-pyrrol-2-yl)methyl)-2-(1-(4-hydroxy-3,5-dimethoxybenzylidene)-5-methoxy-2-methyl-1H-inden-3-yl)acetamide] |  |  |  |  |  |  | 117 | 
COc1cc(/C=C2/C(C)=C(CC(=O)Nc3ccccc3)c3cc(F)ccc32)cc(OC)c1O [Compound 035, (Z)-2-(5-fluoro-1-(4-hydroxy-3,5-dimethoxybenzylidene)-2-methyl-1H-inden-3-yl)-N-phenylacetamide] |  |  |  |  |  |  | 31 | 
COc1cc(/C=C2/C(C)=C(CC(=O)NCc3ccco3)c3cc(F)ccc32)cc(OC)c1OC=O [Compound 002, (Z)-2-(5-fluoro-1-(4-formoxy-3,5-dimethoxybenzylidene)-2-methyl-1H-inden-3-yl)-N-(furan-2-ylmethyl)acetamide] |  |  |  |  |  |  | 112 | 
COc1cc(/C=C2/C(C)=C(CC(=O)NCc3ccccc3)c3cc(F)ccc32)cc(OC)c1O [Compound 015, (Z)—N-benzyl-2-(5-fluoro-1-(4-hydroxy-3,5-dimethoxybenzylidene)-2-methyl-1H-inden-3-yl)acetamide] |  |  |  |  |  |  | 80 | 
COc1cc(/C=C2/C(C)=C(CC(=O)NCc3ccco3)c3cc(F)ccc32)cc(OC)c1OS(C)(=O)=O [Compound 029, (Z)-2-(5-fluoro-1-(4-mesyloxy-3,5-dimethoxybenzylidene)-2-methyl-1H-inden-3-yl)-N-(furan-2-ylmethyl)acetamide] |  |  |  |  |  |  | 35 | 
COc1cc(/C=C2/C(C)=C(CC(=O)NCc3cccn3C)c3cc(F)ccc32)cc(OC)c1O [Compound 019, (Z)-2-(5-fluoro-1-(4-hydroxy-3,5-dimethoxybenzylidene)-2-methyl-1H-inden-3-yl)-N-((1-methyl-1H-pyrrol-2-yl)methyl)acetamide] |  |  |  |  |  |  | 188 | 
COc1ccc2c(c1)C(CC(=O)NC1CCN(C)C1)=C(C)/C2=C/c1cc(OC)c(O)c(OC)c1 (stereo not shown) [Compound 005, (Z)-2-(1-(4-hydroxy-3,5-dimethoxybenzylidene)-5-methoxy-2-methyl-1H-inden-3-yl)-N-(1-methylpyrrolidin-3-yl)acetamide] | 5940 | 7190 |  |  |  | 1 |  | 
OCCn1cc(-c2ccc3c(c2)CC/C3=N\O)c(-c2ccncc2)n1 [GDC0879, reference compound] |  |  |  |  | 23600 |  |  | 

More lines, main results first:

IC50 (A549 lung cancer cells) [nM] | IC50 (HT-29 colon cancer cells; [2]) [nM] | IC50 (SW-480 cells) [nM] | IC50 (Caco-2 cells) [nM] | IC50 (HT-29 colon cancer cells; known Ras pathway inhibitors, 384-well plates, Table 4, read-out: HT-29 IC50) [nM] | SMILES | Selectivity HT-29/A549 (A549 lung cancer cells) | HT-29/HCT-116 selectivity values [1] | Selectivity Caco-2/SW-480 (SW-480 cells)
300 | 730 |  |  |  | COc1ccc2c(c1)C(CC(=O)NCc1ccco1)=C(C)/C2=C/c1cc(Br)c(O)c(OC)c1 [Compound 013, (Z)-2-(1-(3-bromo-4-hydroxy-5-methoxybenzylidene)-5-methoxy-2-methyl-1H-inden-3-yl)-N-(furan-2-ylmethyl)acetamide] | 2 |  | 
167 | 1540 | 139 | 1330 |  | COc1cc2c(cc1OC)/C(=C\c1cc(OC)c(O)c(OC)c1)C(C)=C2CC(=O)NCc1ccco1 [Compound 008, (Z)—N-(furan-2-ylmethyl)-2-(1-(4-hydroxy-3,5-dimethoxybenzylidene)-5,6-dimethoxy-2-methyl-1H-inden-3-yl)acetamide] | 9 |  | 10
170 | 900 |  |  |  | COc1ccc2c(c1)C(CC(=O)NCc1ccco1)=C(C)/C2=C/c1ccc(O)c(OC)c1 [Compound 012, (Z)—N-(furan-2-ylmethyl)-2-(1-(4-hydroxy-3-methoxybenzylidene)-5-methoxy-2-methyl-1H-inden-3-yl)acetamide] | 5 |  | 
110 | 500 |  |  |  | COc1ccc2c(c1)C(CC(=O)NCc1ccco1)=C(C)/C2=C/c1cc(Cl)c(O)c(OC)c1 [Compound 014, (Z)-2-(1-(3-chloro-4-hydroxy-5-methoxybenzylidene)-5-methoxy-2-methyl-1H-inden-3-yl)-N-(furan-2-ylmethyl)acetamide] | 5 |  | 
716 | 6280 | 435 | 1100 |  | COc1ccc2c(c1)C(CC(=O)NCc1ccco1)=C(C)/C2=C/c1cc(C)c(O)c(C)c1 [Compound 001, (Z)—N-(furan-2-ylmethyl)-2-(1-(4-hydroxy-3,5-dimethylbenzylidene)-5-methoxy-2-methyl-1H-inden-3-yl)acetamide] | 9 |  | 3
79 | 916 | 877 | 1600 |  | COc1ccc2c(c1)C(CC(=O)Nc1cccnc1)=C(C)/C2=C/c1cc(OC)c(O)c(OC)c1 [Compound 004, (Z)-2-(1-(4-hydroxy-3,5-dimethoxybenzylidene)-5-methoxy-2-methyl-1H-inden-3-yl)-N-(pyridin-3-yl)acetamide] | 12 |  | 2
353 | 4830 | 223 | 2610 |  | COc1ccc2c(c1)C(CC(=O)NCc1cccnc1)=C(C)/C2=C/c1cc(OC)c(O)c(OC)c1 [Compound 009, (Z)-2-(1-(4-hydroxy-3,5-dimethoxybenzylidene)-5-methoxy-2-methyl-1H-inden-3-yl)-N-(pyridin-3-ylmethyl)acetamide] | 14 |  | 12
